Experimental data reported in patent US20240010635A1, “NOVEL INDIRUBIN DERIVATIVES HAVING HETEROBICYCLIC MOIETIES AND THE USE THEREOF” (priority 2022, published 2024).
Positions count from the first letter of the chain named.

Experiments:
Format in all cases: biochemical
FLT3 WT = biological target: T1, FLT3 WT (Homo sapiens, UniProt P36888); test: ADP-Glo kinase assay, FLT3 WT; conditions: recombinant FLT3, ADP-Glo, 120 min room temperature; read-out: Enzyme activity (IC50, nM) FLT3 WT
T1 construct: Recombinant proteins containing the FLT3 and FLT3 (D835Y) domains were purchased from Promega; purchased Promega V4064
T1 sequence (P36888 610-943 limits assumed): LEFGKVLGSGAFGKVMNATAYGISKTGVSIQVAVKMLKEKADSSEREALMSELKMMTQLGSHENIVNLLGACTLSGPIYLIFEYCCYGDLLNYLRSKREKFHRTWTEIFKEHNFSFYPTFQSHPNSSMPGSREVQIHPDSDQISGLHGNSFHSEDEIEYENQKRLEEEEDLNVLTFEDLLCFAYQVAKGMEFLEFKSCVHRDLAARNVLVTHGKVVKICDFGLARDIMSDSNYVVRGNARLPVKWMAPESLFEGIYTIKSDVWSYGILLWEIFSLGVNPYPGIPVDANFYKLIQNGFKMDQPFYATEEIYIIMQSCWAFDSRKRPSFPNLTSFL
Protocol: FLT3 activity inhibition was measured by ADP-Glo kinase assay (Promega, cat #V9101). ADP-Glo kinase analysis method is an emission ADP detect method which measures kinase activity by quantification of ADP amount produced during kinase reaction and provides uniform high-throughput screening method.
(§1) Analysis performed in two steps. First, after kinase reaction, ADP-Glo™ reagent of equal volume was added to finish kinase reaction, and then the rest ATP was exhausted. Second, Kinase Detection Reagent was added to convert ADP to ATP and newly synthesized ATP was measured by luciferase/luciferin reaction at the same time. Generated light was measured by using luminometer. The measured luminescence amount can be applied to the ATP→ADP standard conversion curve to confirm the correlation with the ADP concentration.
Recombinant proteins containing the FLT3 and FLT3 (D835Y) domains were purchased from Promega (cat #V4064, cat #V4514), respectively. According to the manufacturer's instructions, optimal enzyme, ATP, and substrate concentration were established using the ADP-Glo™ Kinase Assay (Promega, USA). Kinase reaction buffer 5× (200 mM Tris-HCl, pH 7.5, 100 mM MgCl2, 0.5 mg/ml BSA) was diluted and used, and the diluted compound of the present invention (5×, 1 μl), FLT3 enzyme or FLT3/D835Y enzyme (2.5×, 2 μl) and substrate/ATP mixture (2.5×, 2 μl), were mixed sequentially and reacted at room temperature for 120 minutes. Then, ADP-Glo™ Reagent (5 μl) was added and reacted for 40 min at room temperature. Finally, after adding a reagent for detection (Kinase Detection Reagent, 10 μl), reacting at room temperature for 30 min, and then phosphorylation of substrate peptide was measured by measuring luciferase signal (Integration time 0.5-1 second) using SpectraMax ID5 reader (Molecular Devices LLC., San Jose, CA, USA). IC50 was calculated by nonlinear regression using Prism version 5.01 (GrapghPad).

RET WT = biological target: T2, RET WT (Homo sapiens, UniProt P07949); test: ADP-Glo kinase assay, RET WT; conditions: recombinant RET wt, 120 min room temperature, read-out: Enzyme activity (IC50, nM) RET WT
T2 construct: Recombinant proteins containing RET wt, RET (M918T) and RET (V804L) domains were purchased from Promega; purchased Promega V8061
T2 sequence (P07949 724-1016 limits assumed): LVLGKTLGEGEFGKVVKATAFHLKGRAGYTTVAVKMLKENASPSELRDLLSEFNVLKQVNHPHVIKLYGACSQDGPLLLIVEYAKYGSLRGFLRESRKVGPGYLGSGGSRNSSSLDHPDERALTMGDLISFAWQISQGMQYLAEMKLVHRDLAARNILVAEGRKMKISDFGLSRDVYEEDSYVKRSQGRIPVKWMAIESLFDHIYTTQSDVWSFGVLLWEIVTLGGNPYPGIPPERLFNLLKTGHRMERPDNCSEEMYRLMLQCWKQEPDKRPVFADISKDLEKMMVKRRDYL
Protocol: as §1
(§2) Recombinant proteins containing RET wt, RET (M918T) and RET (V804L) domains were purchased from Promega (cat #V8061, cat #VA7274, cat #V4473), respectively. According to the manufacturer's instructions, optimal enzyme, ATP, and substrate concentration were established using ADP-Glo™ Kinase Assay (Promega, USA). […] Then, ADP-Glo™ Reagent (5 μl) was added and reacted at room temperature for further 40 min. Lastly, Kinase Detection Reagent (10 μl) was added and reacted for 30 min more at room temperature, and then phosphorylation of substrate peptide was measured by measuring luciferase signal (Integration time 0.5-1 second) using SpectraMax ID5 reader (Molecular Devices LLC., San Jose, CA, USA). IC50 was calculated by nonlinear regression using Prism version 5.01 (GrapghPad).

RET V804L = biological target: T3, RET V804L (Homo sapiens, UniProt P07949, V804L); test: ADP-Glo kinase assay, RET V804L; conditions: recombinant RET (V804L), 120 min room temperature, read-out: Enzyme activity (IC50, nM) RET V804L
T3 construct: Recombinant proteins containing RET wt, RET (M918T) and RET (V804L) domains were purchased from Promega; purchased Promega V4473
T3 sequence (P07949 724-1016 V804L limits assumed): T2 sequence (P07949 724-1016 limits assumed) with V81L
Protocol: as §1, §2

RET M918T = biological target: T4, RET M918T (Homo sapiens, UniProt P07949, M918T); test: ADP-Glo kinase assay, RET M918T; conditions: recombinant RET (M918T), 120 min room temperature, read-out: Enzyme activity (IC50, nM) RET M918T
T4 construct: Recombinant proteins containing RET wt, RET (M918T) and RET (V804L) domains were purchased from Promega; purchased Promega VA7274
T4 sequence (P07949 724-1016 M918T limits assumed): T2 sequence (P07949 724-1016 limits assumed) with M195T
Protocol: as §1, §2

Structure (SMILES) | IC50 (FLT3 WT) [nM] | IC50 (RET WT) [nM] | IC50 (RET V804L) [nM] | IC50 (RET M918T) [nM]
O=C1Nc2ccc(F)cc2/C1=C1/Nc2ccccc2/C1=N\OCC(=O)N1C[C@H]2C[C@@H]1CN2 [Example 20, (2Z,3E)-3-((2-((1R,4R)-2,5-diazabicyclo[2.2.1]heptan-2-yl)-2-oxoethoxy)imino)-5′-fluoro-[2,3′-biindolinylidene]-2′-one] | 2.94 | 1.88 | 1.04 | 1.19
N[C@@H]1[C@H]2CN(CCO/N=C3/C(=C4/C(=O)Nc5ccc(F)cc54)Nc4ccccc43)C[C@@H]12 [Example 8, (2Z,3E)-3-((2-((1R,5S,6s)-6-amino-3-azabicyclo[3.1.0]hexan-3-yl)ethoxy)imino)-5′-fluoro-[2,3′-biindolinylidene]-2′-one] | 1.35 | 0.441 | 0.54 | 0.344
N[C@@H]1[C@H]2CN(CCO/N=C3/C(=C4/C(=O)Nc5ccccc54)Nc4ccccc43)C[C@@H]12 [Example 3, (2Z,3E)-3-((2-((1R,5S,6s)-6-amino-3-azabicyclo[3.1.0]hexan-3-yl)ethoxy)imino)-[2,3′-biindolinylidene]-2′-one] | 3.78 | 0.969 | 1.27 | 1.02
